Experimental data reported in PubChem BioAssay (NCI).
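Grown in 96-well plates, cells were treated for 48 hours with each compound at five concentrations. Insufficient inhibition: endpoint recorded as highest concentration tested. Abbreviation: GI50, concentration required for 50% inhibition of growth. TGI: total growth inhibition.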

What was measured:
Experiment in all cases: NCI anticancer screen, dose series, 48 h
HT29 colon = test system: HT29 colon
SK-MEL-28 melanoma = test system: SK-MEL-28 melanoma
786-0 renal = test system: 786-0 renal
HCT-15 colon = test system: HCT-15 colon
U251 CNS = test system: U251 CNS
A498 renal = test system: A498 renal
KM12 colon = test system: KM12 colon
RXF 393 renal = test system: RXF 393 renal
A549 NSCLC = test system: A549 NSCLC
SK-OV-3 ovarian = test system: SK-OV-3 ovarian

## CC(=O)NC(CCCNCc1ccccc1)C(=O)NCc1ccccc1 (stereo not given)
HT29 colon
  TGI: > 100 µM
SK-MEL-28 melanoma
  TGI: > 100 µM
786-0 renal
  TGI: > 100 µM
HCT-15 colon
  TGI: > 100 µM
U251 CNS
  TGI: > 100 µM
A498 renal
  TGI: > 100 µM
KM12 colon
  TGI: > 100 µM
RXF 393 renal
  TGI: > 100 µM
A549 NSCLC
  TGI: > 100 µM
SK-OV-3 ovarian
  TGI: > 100 µM

## COc1ccc(-c2ccc(/C=N/n3c(COc4ccc(Cl)cc4Cl)n[nH]c3=S)o2)c([N+](=O)[O-])c1
HT29 colon
  GI50: 34.2 µM
  TGI: 79.6 µM
SK-MEL-28 melanoma
  GI50: 30.3 µM
  TGI: 62.5 µM
786-0 renal
  GI50: 29 µM
  TGI: 54.2 µM
HCT-15 colon
  GI50: 28.6 µM
  TGI: > 100 µM
U251 CNS
  GI50: 22 µM
  TGI: > 100 µM
A498 renal
  GI50: 16.8 µM
  TGI: 41.5 µM
KM12 colon
  GI50: 15.9 µM
  TGI: 33 µM
RXF 393 renal
  GI50: 16.6 µM
  TGI: 40.2 µM
A549 NSCLC
  GI50: 19.5 µM
  TGI: > 100 µM
SK-OV-3 ovarian
  GI50: 23.6 µM
  TGI: > 100 µM

## CNS(=O)(=O)NN(C)S(=O)(=O)c1ccc(F)cc1
HT29 colon
  TGI: > 100 µM
SK-MEL-28 melanoma
  TGI: > 100 µM
786-0 renal
  TGI: > 100 µM
HCT-15 colon
  TGI: > 100 µM
U251 CNS
  TGI: > 100 µM
A498 renal
  TGI: > 100 µM
KM12 colon
  TGI: > 100 µM
RXF 393 renal
  TGI: > 100 µM
A549 NSCLC
  TGI: > 100 µM
SK-OV-3 ovarian
  TGI: > 100 µM

## COc1cccc(NC(=O)CC(=O)N2N=C(N(CCC#N)c3ccc(Cl)cc3)CC2c2ccccc2)c1 (stereo not given)
HT29 colon
  TGI: > 100 µM
SK-MEL-28 melanoma
  TGI: > 100 µM
786-0 renal
  TGI: > 100 µM
HCT-15 colon
  TGI: > 100 µM
U251 CNS
  TGI: > 100 µM
A498 renal
  TGI: > 100 µM
KM12 colon
  TGI: > 100 µM
RXF 393 renal
  TGI: > 100 µM
A549 NSCLC
  TGI: > 100 µM
SK-OV-3 ovarian
  TGI: > 100 µM

## Cc1ccc(C(=O)O/N=C2/CCC/C2=C\c2ccccc2)cc1
HT29 colon
  TGI: > 100 µM
SK-MEL-28 melanoma
  TGI: > 100 µM
786-0 renal
  TGI: > 100 µM
HCT-15 colon
  TGI: > 100 µM
U251 CNS
  TGI: > 100 µM
A498 renal
  TGI: > 100 µM
KM12 colon
  TGI: > 100 µM
RXF 393 renal
  TGI: > 100 µM
A549 NSCLC
  TGI: > 100 µM
SK-OV-3 ovarian
  TGI: > 100 µM

## O=C([O-])c1ccccc1Nc1ccccn1.O=C([O-])c1ccccc1Nc1ccccn1.[Ni+2]
HT29 colon
  GI50: > 100 µM
  TGI: > 100 µM
SK-MEL-28 melanoma
  GI50: 58.9 µM
  TGI: > 100 µM
786-0 renal
  GI50: > 100 µM
  TGI: > 100 µM
HCT-15 colon
  GI50: > 100 µM
  TGI: > 100 µM
U251 CNS
  GI50: > 100 µM
  TGI: > 100 µM
A498 renal
  GI50: > 100 µM
  TGI: > 100 µM
KM12 colon
  GI50: > 100 µM
  TGI: > 100 µM
RXF 393 renal
  GI50: > 100 µM
  TGI: > 100 µM
A549 NSCLC
  GI50: > 100 µM
  TGI: > 100 µM
SK-OV-3 ovarian
  GI50: > 100 µM
  TGI: > 100 µM

## COC(=O)CCC(NC(=S)N/N=C(\C)c1nccs1)C(=O)OC (stereo not given)
HT29 colon
  TGI: > 100 µM
SK-MEL-28 melanoma
  TGI: > 100 µM
786-0 renal
  TGI: > 100 µM
HCT-15 colon
  TGI: > 100 µM
U251 CNS
  TGI: > 100 µM
A498 renal
  TGI: > 100 µM
KM12 colon
  TGI: > 100 µM
RXF 393 renal
  TGI: > 100 µM
A549 NSCLC
  TGI: > 100 µM
SK-OV-3 ovarian
  TGI: > 100 µM

## COc1c2c(c3c(c1CCC(=O)O)OC(C)(C)C=C3)OC(C)(C)C=C2
HT29 colon
  TGI: > 100 µM
SK-MEL-28 melanoma
  TGI: > 100 µM
786-0 renal
  TGI: > 100 µM
HCT-15 colon
  TGI: > 100 µM
U251 CNS
  TGI: > 100 µM
A498 renal
  TGI: > 100 µM
KM12 colon
  TGI: > 100 µM
RXF 393 renal
  TGI: > 100 µM
A549 NSCLC
  TGI: > 100 µM
SK-OV-3 ovarian
  TGI: > 100 µM

## COC1(C(=O)N[C@@H](C)c2ccc(-n3cc(F)cn3)nc2)CCC(c2nc(C)cc(Nc3cc(C)[nH]n3)n2)CC1 (stereo not given in full)
HT29 colon
  GI50: 2.31 µM
  TGI: 22.4 µM
SK-MEL-28 melanoma
  GI50: 10.2 µM
  TGI: 22.5 µM
786-0 renal
  GI50: 1.33 µM
  TGI: 8 µM
HCT-15 colon
  GI50: 2.93 µM
  TGI: 13.3 µM
U251 CNS
  GI50: 1.25 µM
  TGI: 22.6 µM
A498 renal
  GI50: 0.147 µM
  TGI: 0.7 µM
KM12 colon
  GI50: 0.0676 µM
  TGI: 18.2 µM
RXF 393 renal
  GI50: 0.177 µM
  TGI: 0.665 µM
A549 NSCLC
  GI50: 1.78 µM
  TGI: 16.3 µM
SK-OV-3 ovarian
  GI50: 1.11 µM
  TGI: 5.07 µM

## COC(=O)/C=C/C=C(c1ccccc1)c1ccccc1
HT29 colon
  GI50: 3.85 µM
  TGI: > 100 µM
SK-MEL-28 melanoma
  GI50: 7.84 µM
  TGI: > 100 µM
786-0 renal
  GI50: 4.32 µM
  TGI: 58.5 µM
HCT-15 colon
  GI50: 3.79 µM
  TGI: 42.1 µM
U251 CNS
  GI50: 3.6 µM
  TGI: 29.3 µM
A498 renal
  GI50: 10.6 µM
  TGI: 39.6 µM
KM12 colon
  GI50: 3.67 µM
  TGI: 27.4 µM
RXF 393 renal
  GI50: 6.24 µM
  TGI: 30 µM
A549 NSCLC
  GI50: 5.02 µM
  TGI: > 100 µM
SK-OV-3 ovarian
  GI50: 5.93 µM
  TGI: 48.9 µM

## O=C(CC(=O)CC(O)(C(F)(F)F)C(F)(F)F)CC(O)(C(F)(F)F)C(F)(F)F
HT29 colon
  TGI: > 10 µM
SK-MEL-28 melanoma
  TGI: > 10 µM
786-0 renal
  TGI: > 10 µM
HCT-15 colon
  TGI: > 10 µM
U251 CNS
  TGI: > 10 µM
A498 renal
  TGI: > 10 µM
KM12 colon
  TGI: > 10 µM
RXF 393 renal
  TGI: > 10 µM
A549 NSCLC
  TGI: > 10 µM
SK-OV-3 ovarian
  TGI: > 10 µM

## COc1ccc(C(=O)/C=C/c2ccc(/C=C/c3cc(OC)c(OC)c(OC)c3)cc2)cc1
HT29 colon
  GI50: 4.17 µM
  TGI: > 100 µM
SK-MEL-28 melanoma
  GI50: 16.9 µM
  TGI: > 100 µM
786-0 renal
  GI50: 10.4 µM
  TGI: 71.1 µM
HCT-15 colon
  GI50: 2.42 µM
  TGI: > 100 µM
U251 CNS
  GI50: 5.09 µM
  TGI: 54.7 µM
A498 renal
  GI50: 18.6 µM
  TGI: > 100 µM
KM12 colon
  GI50: 3.75 µM
  TGI: 83.9 µM
RXF 393 renal
  GI50: 8.01 µM
  TGI: 43.6 µM
A549 NSCLC
  GI50: 4.67 µM
  TGI: 80.9 µM
SK-OV-3 ovarian
  GI50: 15.6 µM
  TGI: 64.5 µM

## Nc1c(C(=O)Nc2cccc([N+](=O)[O-])c2)sc2nc3c(cc12)C(O)CCC3 (stereo not given)
HT29 colon
  GI50: 2.89 µM
  TGI: > 100 µM
SK-MEL-28 melanoma
  GI50: 16.9 µM
  TGI: > 100 µM
786-0 renal
  GI50: 13.5 µM
  TGI: > 100 µM
HCT-15 colon
  GI50: 2.82 µM
  TGI: > 100 µM
U251 CNS
  GI50: 6.3 µM
  TGI: > 72.4 µM
A498 renal
  GI50: 2.7 µM
  TGI: > 100 µM
KM12 colon
  GI50: 3.5 µM
  TGI: > 100 µM
RXF 393 renal
  GI50: 6.76 µM
  TGI: > 65.8 µM
A549 NSCLC
  GI50: 5.82 µM
  TGI: > 100 µM
SK-OV-3 ovarian
  GI50: 10.2 µM
  TGI: > 100 µM

## Cc1cc(N(CCC#N)S(=O)(=O)c2ccccc2)ccc1/C=C1N=C(/C=C/c2ccccc2)OC\1=O
HT29 colon
  TGI: > 100 µM
SK-MEL-28 melanoma
  TGI: > 100 µM
786-0 renal
  TGI: > 100 µM
HCT-15 colon
  TGI: > 100 µM
U251 CNS
  TGI: > 100 µM
A498 renal
  TGI: > 100 µM
KM12 colon
  TGI: > 100 µM
RXF 393 renal
  TGI: > 100 µM
A549 NSCLC
  TGI: > 100 µM
SK-OV-3 ovarian
  TGI: > 100 µM

## CNC(=O)OCc1nc(SC2CCCCO2)n(C)c1COC(=O)NC (stereo not given)
HT29 colon
  TGI: > 100 µM
SK-MEL-28 melanoma
  TGI: > 100 µM
786-0 renal
  TGI: > 100 µM
HCT-15 colon
  TGI: > 100 µM
U251 CNS
  TGI: > 100 µM
A498 renal
  TGI: > 100 µM
KM12 colon
  TGI: > 100 µM
RXF 393 renal
  TGI: > 100 µM
A549 NSCLC
  TGI: > 100 µM
SK-OV-3 ovarian
  TGI: > 100 µM

## O=C1OC(=O)C(c2c[nH]c3ccccc23)=C1c1c[nH]c2ccccc12
HT29 colon
  GI50: > 25 µM
  TGI: > 25 µM
SK-MEL-28 melanoma
  GI50: > 25 µM
  TGI: > 25 µM
786-0 renal
  GI50: > 25 µM
  TGI: > 25 µM
HCT-15 colon
  GI50: > 25 µM
  TGI: > 25 µM
U251 CNS
  GI50: > 25 µM
  TGI: > 25 µM
A498 renal
  GI50: > 25 µM
  TGI: > 25 µM
KM12 colon
  GI50: > 25 µM
  TGI: > 25 µM
RXF 393 renal
  GI50: > 25 µM
  TGI: > 25 µM
A549 NSCLC
  GI50: > 25 µM
  TGI: > 25 µM
SK-OV-3 ovarian
  GI50: > 25 µM
  TGI: > 25 µM
